Source: US11541029B2, “High penetration compositions and their applications” (Techfields Pharma Co., Ltd., priority 2008, dated 2023)

Tests used:
[1] = Amount of salicylic acid in rat plasma and brain, 0.3 mmol/kg
Excerpt: 20 male rats were divided into 4 groups (n=5). 0.3 mmol/kg of diethylaminoethyl acetylsalicylate.HCl salt was administrated into rats intramuscularly (20% in 70% ethanol) or transdermally (10% in 70% ethanol, on the shaved back of rat, 10 cm^2) and 0.3 mmol/kg of aspirin was administrated into rats intramuscularly (20% in 70% ethanol) or transdermally (10% in 70% ethanol, on the shaved back of rat, 10 cm^2). […] The plasma or brain tissue (the whole brain was washed with pH 7.4 buffer for 3 times) was homogenized immediately in 3-5 ml of methanol, using a tissue tearor at 30,000 rpm (about 2 min.).

[2] = test system: MPTP-induced Parkinson's disease mice; assay: Anti-Parkinson's disease activity in MPTP-induced mice; settings: MPTP mice, 30 mg/kg, n = 10
Method: Group A mice were ip injected 0.4% sodium carboxymethylcellulos (15 ml/kg per day) for 7 days. Group B and C mice were ip injected N-methyl-4-phenyl-1,2,3,6-tetrahydropyridine (MPTP, 30 mg/kg per day) for 7 days. The mice were divided into 2 groups. […] All mice were killed after the last treatment and the brain tissues were quickly freezed at −80° C. […] The contents of malondialdehyde (MDA) in the SN were measured with the thiobarbituric acid-reaction to indicate the LPO, and contents of glutathione (GSH) in the substantia nigra (SN) were based on the dithionitrobenzonic acid (DTNB) determination. The contents of GABA and Glu in the striatum and SN were shown by high performance amino acid auto-analyser.

SLAC/MRL/LPR mice = assay: Lupus in MRL/LPR mice treated from 8 weeks old, 30 mg/kg (10% aq.) on back skin twice per day; format: in vivo
Method: . Progression of lupus was monitored once a week by measurement of hematuria, body weight and survival rate. The experiments were carried out in two groups of mice. One group of mice were 8 weeks old and had not shown SLE characteristics (Table 26a). The other group of mice were 16 weeks old, and had shown SLE characteristics (Table 26b).

CCN(CC)CCOC(=O)c1ccccc1OC(C)=O.Cl [P-1, diethylaminoethyl acetylsalicylate.HCl salt]
salicylic acid in Plasma (1 hr) ([1]; intramuscularly): 378 ± 34 nmol/mL | salicylic acid in Plasma (8 hr) ([1]; intramuscularly): 123 ± 25 nmol/mL | salicylic acid in Plasma (18 hr) ([1]; intramuscularly): 0.9 ± 0.2 nmol/mL | salicylic acid in Plasma (1 hr) ([1]; transdermally): 158 ± 21 nmol/mL | salicylic acid in Plasma (8 hr) ([1]; transdermally): 103 ± 28 nmol/mL | salicylic acid in Plasma (18 hr) ([1]; transdermally): 1.1 ± 0.2 nmol/mL | GABA in Striatum [2]: 4.9 ± 1.6 μmol/g wet tissue | GABA in Substantia nigra [2]: 4.7 ± 0.5 μmol/g wet tissue | GSH in the substantia nigra [2]: 143 ± 13 μg/g protein | Glu in Striatum [2]: 26.5 ± 2.7 | Glu in Substantia nigra [2]: 29.5 ± 2.4 | MDA in the substantia nigra [2]: 14 ± 4 μmol/g protein | Body Weight (SLAC/MRL/LPR mice; week 8): 30.5 ± 2.6 g | Hematuria (0-4) (SLAC/MRL/LPR mice; week 8): 0 | Survival Rate (SLAC/MRL/LPR mice; week 8): 10/10 | Body Weight (SLAC/MRL/LPR mice; week 9): 33.5 ± 2.1 g | Hematuria (0-4) (SLAC/MRL/LPR mice; week 9): 0 | Survival Rate (SLAC/MRL/LPR mice; week 9): 10/10 | Body Weight (SLAC/MRL/LPR mice; week 10): 36.2 ± 2.7 g | Hematuria (0-4) (SLAC/MRL/LPR mice; week 10): 0 | Survival Rate (SLAC/MRL/LPR mice; week 10): 10/10 | Body Weight (SLAC/MRL/LPR mice; week 11): 39.9 ± 2.1 g | Hematuria (0-4) (SLAC/MRL/LPR mice; week 11): 0 | Survival Rate (SLAC/MRL/LPR mice; week 11): 10/10 | Body Weight (SLAC/MRL/LPR mice; week 12): 42.7 ± 2.3 g | Hematuria (0-4) (SLAC/MRL/LPR mice; week 12): 0 | Survival Rate (SLAC/MRL/LPR mice; week 12): 10/10 | Body Weight (SLAC/MRL/LPR mice; week 13): 44.7 ± 2.4 g | Hematuria (0-4) (SLAC/MRL/LPR mice; week 13): 0 | Survival Rate (SLAC/MRL/LPR mice; week 13): 10/10 | Body Weight (SLAC/MRL/LPR mice; week 14): 47.1 ± 1.8 g | Hematuria (0-4) (SLAC/MRL/LPR mice; week 14): 0 | Survival Rate (SLAC/MRL/LPR mice; week 14): 10/10 | Body Weight (SLAC/MRL/LPR mice; week 15): 48.9 ± 2.6 g | Hematuria (0-4) (SLAC/MRL/LPR mice; week 15): 0 | Survival Rate (SLAC/MRL/LPR mice; week 15): 10/10 | Body Weight (SLAC/MRL/LPR mice; week 16): 49.6 ± 2.1 g | Hematuria (0-4) (SLAC/MRL/LPR mice; week 16): 0 | Survival Rate (SLAC/MRL/LPR mice; week 16): 10/10 | Body Weight (SLAC/MRL/LPR mice; week 17): 50.2 ± 2.5 g | Hematuria (0-4) (SLAC/MRL/LPR mice; week 17): 0 | Survival Rate (SLAC/MRL/LPR mice; week 17): 10/10 | Body Weight (SLAC/MRL/LPR mice; week 18): 50.6 ± 2.4 g | Hematuria (0-4) (SLAC/MRL/LPR mice; week 18): 0 | Survival Rate (SLAC/MRL/LPR mice; week 18): 10/10 | Body Weight (SLAC/MRL/LPR mice; week 19): 50.9 ± 2.3 g | Hematuria (0-4) (SLAC/MRL/LPR mice; week 19): 0 | Survival Rate (SLAC/MRL/LPR mice; week 19): 10/10 | Body Weight (SLAC/MRL/LPR mice; week 20): 51.1 ± 2.0 g | Hematuria (0-4) (SLAC/MRL/LPR mice; week 20): 0 | Survival Rate (SLAC/MRL/LPR mice; week 20): 10/10 | Body Weight (SLAC/MRL/LPR mice; week 21): 50.9 ± 2.3 g | Hematuria (0-4) (SLAC/MRL/LPR mice; week 21): 0 | Survival Rate (SLAC/MRL/LPR mice; week 21): 10/10 | Body Weight (SLAC/MRL/LPR mice; week 22): 50.4 ± 2.2 g | Hematuria (0-4) (SLAC/MRL/LPR mice; week 22): 0 | Survival Rate (SLAC/MRL/LPR mice; week 22): 10/10 | Body Weight (SLAC/MRL/LPR mice; week 23): 50.9 ± 2.1 g | Hematuria (0-4) (SLAC/MRL/LPR mice; week 23): 0 | Survival Rate (SLAC/MRL/LPR mice; week 23): 10/10 | Body Weight (SLAC/MRL/LPR mice; week 24): 51.2 ± 2.5 g | Hematuria (0-4) (SLAC/MRL/LPR mice; week 24): 0 | Survival Rate (SLAC/MRL/LPR mice; week 24): 10/10 | Body Weight (SLAC/MRL/LPR mice; week 25): 50.8 ± 2.2 g | Hematuria (0-4) (SLAC/MRL/LPR mice; week 25): 0 | Survival Rate (SLAC/MRL/LPR mice; week 25): 10/10 | Body Weight (SLAC/MRL/LPR mice; week 26): 50.7 ± 2.6 g | Hematuria (0-4) (SLAC/MRL/LPR mice; week 26): 0 | Survival Rate (SLAC/MRL/LPR mice; week 26): 10/10 | Body Weight (SLAC/MRL/LPR mice; week 27): 50.3 ± 2.1 g | Hematuria (0-4) (SLAC/MRL/LPR mice; week 27): 0 | Survival Rate (SLAC/MRL/LPR mice; week 27): 10/10 | Body Weight (SLAC/MRL/LPR mice; week 28): 50.6 ± 2.0 g | Hematuria (0-4) (SLAC/MRL/LPR mice; week 28): 0 | Survival Rate (SLAC/MRL/LPR mice; week 28): 10/10 | Body Weight (SLAC/MRL/LPR mice; week 29): 50.1 ± 2.0 g | Hematuria (0-4) (SLAC/MRL/LPR mice; week 29): 0 | Survival Rate (SLAC/MRL/LPR mice; week 29): 10/10 | Body Weight (SLAC/MRL/LPR mice; week 30): 49.8 ± 2.1 g | Hematuria (0-4) (SLAC/MRL/LPR mice; week 30): 0 | Survival Rate (SLAC/MRL/LPR mice; week 30): 10/10 | Body Weight (SLAC/MRL/LPR mice; week 31): 50.4 ± 1.9 g | Hematuria (0-4) (SLAC/MRL/LPR mice; week 31): 0 | Survival Rate (SLAC/MRL/LPR mice; week 31): 10/10 | Body Weight (SLAC/MRL/LPR mice; week 32): 50.8 ± 2.0 g | Hematuria (0-4) (SLAC/MRL/LPR mice; week 32): 0 | Survival Rate (SLAC/MRL/LPR mice; week 32): 10/10 | Body Weight (SLAC/MRL/LPR mice; week 33): 50.6 ± 2.1 g | Hematuria (0-4) (SLAC/MRL/LPR mice; week 33): 0 | Survival Rate (SLAC/MRL/LPR mice; week 33): 10/10 | Body Weight (SLAC/MRL/LPR mice; week 34): 50.8 ± 2.3 g | Hematuria (0-4) (SLAC/MRL/LPR mice; week 34): 0 | Survival Rate (SLAC/MRL/LPR mice; week 34): 10/10 | Body Weight (SLAC/MRL/LPR mice; week 35): 50.3 ± 2.4 g | Hematuria (0-4) (SLAC/MRL/LPR mice; week 35): 0 | Survival Rate (SLAC/MRL/LPR mice; week 35): 10/10 | Body Weight (SLAC/MRL/LPR mice; week 36): 50.7 ± 2.3 g | Hematuria (0-4) (SLAC/MRL/LPR mice; week 36): 0 | Survival Rate (SLAC/MRL/LPR mice; week 36): 10/10 | Body Weight (SLAC/MRL/LPR mice; week 37): 50.9 ± 2.0 g | Hematuria (0-4) (SLAC/MRL/LPR mice; week 37): 0 | Survival Rate (SLAC/MRL/LPR mice; week 37): 10/10 | Body Weight (SLAC/MRL/LPR mice; week 38): 51.1 ± 2.6 g | Hematuria (0-4) (SLAC/MRL/LPR mice; week 38): 0 | Survival Rate (SLAC/MRL/LPR mice; week 38): 10/10 | Body Weight (SLAC/MRL/LPR mice; week 39): 50.6 ± 2.2 g | Hematuria (0-4) (SLAC/MRL/LPR mice; week 39): 0 | Survival Rate (SLAC/MRL/LPR mice; week 39): 10/10 | Body Weight (SLAC/MRL/LPR mice; week 40): 50.7 ± 2.0 g | Hematuria (0-4) (SLAC/MRL/LPR mice; week 40): 0 | Survival Rate (SLAC/MRL/LPR mice; week 40): 10/10 | Body Weight (SLAC/MRL/LPR mice; week 41): 51.2 ± 2.1 g | Hematuria (0-4) (SLAC/MRL/LPR mice; week 41): 0 | Survival Rate (SLAC/MRL/LPR mice; week 41): 10/10 | Body Weight (SLAC/MRL/LPR mice; week 42): 51.1 ± 2.6 g | Hematuria (0-4) (SLAC/MRL/LPR mice; week 42): 0 | Survival Rate (SLAC/MRL/LPR mice; week 42): 10/10 | Body Weight (SLAC/MRL/LPR mice; week 43): 50.7 ± 2.2 g | Hematuria (0-4) (SLAC/MRL/LPR mice; week 43): 0 | Survival Rate (SLAC/MRL/LPR mice; week 43): 10/10 | Body Weight (SLAC/MRL/LPR mice; week 44): 50.3 ± 2.6 g | Hematuria (0-4) (SLAC/MRL/LPR mice; week 44): 0 | Survival Rate (SLAC/MRL/LPR mice; week 44): 10/10 | Body Weight (SLAC/MRL/LPR mice; week 45): 50.7 ± 2.0 g | Hematuria (0-4) (SLAC/MRL/LPR mice; week 45): 0 | Survival Rate (SLAC/MRL/LPR mice; week 45): 10/10 | Body Weight (SLAC/MRL/LPR mice; week 46): 50.6 ± 2.3 g | Hematuria (0-4) (SLAC/MRL/LPR mice; week 46): 0 | Survival Rate (SLAC/MRL/LPR mice; week 46): 10/10 | Body Weight (SLAC/MRL/LPR mice; week 47): 50.1 ± 2.0 g | Hematuria (0-4) (SLAC/MRL/LPR mice; week 47): 0 | Survival Rate (SLAC/MRL/LPR mice; week 47): 10/10 | Body Weight (SLAC/MRL/LPR mice; week 48): 50.3 ± 2.5 g | Hematuria (0-4) (SLAC/MRL/LPR mice; week 48): 0 | Survival Rate (SLAC/MRL/LPR mice; week 48): 10/10 | Body Weight (SLAC/MRL/LPR mice; week 49): 50.7 ± 2.4 g | Hematuria (0-4) (SLAC/MRL/LPR mice; week 49): 0 | Survival Rate (SLAC/MRL/LPR mice; week 49): 10/10 | Body Weight (SLAC/MRL/LPR mice; week 50): 51.2 ± 2.1 g | Hematuria (0-4) (SLAC/MRL/LPR mice; week 50): 0 | Survival Rate (SLAC/MRL/LPR mice; week 50): 10/10
